Among the data in PMC11859928, “Design, Synthesis, and Antiproliferative Activity of Novel Indole/1,2,4-Triazole Hybrids as Tubulin Polymerization Inhibitors” (Pharmaceuticals, 2025) are inhibition values, retold here.

Molecules are shown by their SMILES.

What all share (test): NCI one-dose assay
Test [1] concerns A549/ATCC. It is filed as cell-based. As to conditions: Homo sapiens, Non-small cell lung cancer, read-out: Cell growth inhibition %.
Test [2] has as its system BT-549. The format is cell-based. The settings on record: Homo sapiens, BT-549, Breast cancer, read-out: Cell growth inhibition %.
Test [3] deals with EKVX. It is filed as cell-based. As to conditions: Homo sapiens, Non-small cell lung cancer, read-out: Cell growth inhibition %.
Test [4] concerns HCT-15. It is filed as cell-based. As to conditions: Homo sapiens, HCT-15, Colon cancer, read-out: Cell growth inhibition %.
Test [5] relates to HS 578 T. It is filed as cell-based. The settings on record: Homo sapiens, Breast cancer, read-out: Cell growth inhibition %.
Test [6] deals with HT29. The format is cell-based. The settings on record: Homo sapiens, HT-29, HT29, Colon cancer, read-out: Cell growth inhibition %.
Test [7] deals with IGROV1. The format is cell-based. The settings on record: Homo sapiens, IGROV-1, IGROV1, Ovarian cancer, read-out: Cell growth inhibition %.
Test [8] relates to LOX IMVI. The format is cell-based. The settings on record: Homo sapiens, Melanoma, read-out: Cell growth inhibition %.
For test [9], the system named is M14. It is filed as cell-based. As to conditions: Homo sapiens, M14, Melanoma, read-out: Cell growth inhibition %.
The subject of test [10] is MDA-MB-231/ATCC. The format is cell-based. As to conditions: Homo sapiens, Breast cancer, read-out: Cell growth inhibition %.
In test [11] the test system is MDA-MB-435. It is filed as cell-based. The settings on record: Homo sapiens, MDA-MB-435, Melanoma, read-out: Cell growth inhibition %.
Test [12] relates to MDA-MB-468. The format is cell-based. As to conditions: Homo sapiens, MDA-MB-468, Breast cancer, read-out: Cell growth inhibition %.
Test [13] relates to MOLT-4. It is filed as cell-based. As to conditions: Homo sapiens, MOLT-4, Leukemia, read-out: Cell growth inhibition %.
The test system of test [14] is NCI-H460. The format is cell-based. As to conditions: Homo sapiens, NCI-H460, Non-small cell lung cancer, read-out: Cell growth inhibition %.
Test [15] has as its system NCI/ADR-RES. The format is cell-based. As to conditions: Homo sapiens, Ovarian cancer, read-out: Cell growth inhibition %.
The test system of test [16] is OVCAR-8. The format is cell-based. As to conditions: Homo sapiens, OVCAR-8, Ovarian cancer, read-out: Cell growth inhibition %.
The subject of test [17] is SF-268. The format is cell-based. The settings on record: Homo sapiens, SF-268, CNS cancer, read-out: Cell growth inhibition %.
In test [18] the test system is SF-295. It is filed as cell-based. As to conditions: Homo sapiens, SF-295, CNS cancer, read-out: Cell growth inhibition %.
For test [19], the system named is SF-539. It is filed as cell-based. The settings on record: Homo sapiens, SF-539, CNS cancer, read-out: Cell growth inhibition %.
Test [20] concerns SK-MEL-5. The format is cell-based. As to conditions: Homo sapiens, SK-MEL-5, Melanoma, read-out: Cell growth inhibition %.
Test [21] concerns SK-OV-3. The format is cell-based. As to conditions: Homo sapiens, SK-OV-3, Ovarian cancer, read-out: Cell growth inhibition %.
Test [22] relates to SR. It is filed as cell-based. As to conditions: Homo sapiens, Leukemia, read-out: Cell growth inhibition %.
Test [23] relates to UACC-62. The format is cell-based. The settings on record: Homo sapiens, UACC-62, Melanoma, read-out: Cell growth inhibition %.
The test system of test [24] is A498. The format is cell-based, human. The settings on record: Homo sapiens, A498, A498, Renal cancer, read-out: Cell growth inhibition %.

As to `COc1ccc(C(=O)CSc2nnc(-c3c[nH]c4ccccc34)n2-c2ccccc2)cc1` [Compound 6g, 2-((5-(1H-Indol-3-yl)-4-phenyl-4H-1,2,4-triazol-3-yl)thio)-1-(4-methoxyphenyl) Ethenone], the inhibition (usually the drop in the measured response relative to a control, in per cent) at 10 µM in [1] stood at 26%; in [2], 75.3%; in test [3], 70.7%; in [4], 26.7%; in test [5], 84.5%; in test [6], 16.9%. Further, the inhibition at 10 µM was 39.5% in [7]; 56.5% in test [8]; 24.3% in test [9]; 54.4% in test [10]; 30.9% in test [11]; 40.2% in test [12]. Further, the inhibition at 10 µM in test [13] was 17.9%; in test [14], 34.5%; in test [15] it was 100%; in test [16], 84.5%; in [17], 59%; in test [18], 63.8%. In addition, the inhibition at 10 µM is 71.5% in test [19]; 18.6% in test [20]; 33.7% in test [21]; 20.3% in test [22]; 74.2% in [23]; -11.3% in test [24].
Regarding `O=C(CSc1nnc(-c2c[nH]c3ccccc23)n1-c1ccccc1)c1ccc(Br)cc1` [Compound 6i, 2-((5-(1H-Indol-3-yl)-4-phenyl-4H-1,2,4-triazol-3-yl)thio)-1-(4-bromophenyl) Ethenone], the inhibition at 10 µM is 70.1% in [1]; 34.8% in [2]; 89.2% in test [3]; 56% in test [4]; 47.7% in [5]; 42.6% in test [6]. For the same compound, the inhibition at 10 µM in test [7] was 35.9%; in test [8] it was 58.2%; in [9], 49%; in test [10] it was 34%; in [11] it was 59.1%; in test [12], 78%. In addition, the inhibition at 10 µM worked out at 7.77% in test [13]; 65.5% in test [14]; 100% in test [15]; 56.5% in test [16]; 50.9% in test [17]; 66.3% in test [18]. The inhibition at 10 µM in test [19] is 38%; in test [20], 82.8%; in test [21], 51.4%; in test [22], 9.15%; in test [23] it was 64.8%; in test [24] it was 64%.
On to `O=C(CSc1nnc(-c2c[nH]c3ccccc23)n1-c1ccccc1)c1ccc(Cl)cc1` [Compound 6j, 2-((5-(1H-indol-3-yl)-4-phenyl-4H-1,2,4-triazol-3-yl)thio)-1-(4-chlorophenyl) Ethenone], for which the inhibition at 10 µM in test [1] worked out at 62.5%; in test [2], 30.2%; in test [3] it was 74.4%; in test [4], 26.7%; in [5], 66.8%; in test [6], 57.4%. In addition, the inhibition at 10 µM was 48.6% in test [7]; 84.1% in [8]; 19.4% in test [9]; 48.3% in test [10]; 20.8% in [11]; 53.6% in test [12]. For the same compound, the inhibition at 10 µM was -3.56% in [13]; 39.9% in test [14]; 94.2% in test [15]; 75.5% in [16]; 30.6% in test [17]; 45% in [18]. Moreover, the inhibition at 10 µM in [19] stood at 50.5%; in test [20], 21.8%; in test [21] it was 27.9%; in [22], 7.63%; in [23] it was 47.2%; in [24], 42.7%.
For the compound `O/N=C(\CSc1nnc(-c2c[nH]c3ccccc23)n1-c1ccccc1)c1ccccc1` [Compound 7f, (Z)-2-((5-(1H-Indol-3-yl)-4-phenyl-4H-1,2,4-triazol-3-yl)thio)-1-phenylethanone Oxime], the inhibition at 10 µM was found to be 46.9% in test [1]; 42.5% in [2]; 73.6% in test [3]; 74.8% in [4]; 33.3% in test [5]; 50.7% in test [6]. The inhibition at 10 µM stood at 41.8% in test [7]; 59% in test [8]; 54.2% in [9]; 31.3% in test [10]; 54.9% in [11]; 64.6% in test [12]. The inhibition at 10 µM in test [13] was 76.1%; in test [14] it was 66%; in test [15], 44.7%; in test [16] it was 43.2%; in test [17] it was 23.1%; in test [18], 60.8%. Moreover, the inhibition at 10 µM in [19] amounted to 22.9%; in [20], 84.1%; in [21], 30.6%; in [22], 43.8%; in [23] it was 59.2%; in [24] it was 14.8%.
Regarding `COc1ccc(/C(CSc2nnc(-c3c[nH]c4ccccc34)n2-c2ccccc2)=N/O)cc1` [Compound 7g, (Z)-2-((5-(1H-Indol-3-yl)-4-phenyl-4H-1,2,4-triazol-3-yl)thio)-1-(4-methoxyphenyl) Ethanone Oxime], the inhibition at 10 µM in test [1] worked out at 65.8%; in [2], 83.5%; in test [3], 84.9%; in test [4], 84.7%; in [5], 61.2%; in test [6], 68%. The inhibition at 10 µM in [7] is 56.9%; in [8] it was 178%; in test [9], 71.1%; in [10], 39.3%; in test [11] it was 105%; in test [12], 99.4%. Also, the inhibition at 10 µM in test [13] is 83.3%; in test [14] it was 82.8%; in test [15], 61.8%; in test [16] it was 70.3%; in test [17] it was 51.5%; in test [18] it was 79%. The inhibition at 10 µM amounted to 42.7% in [19]; 110% in test [20]; 47.9% in test [21]; 89.1% in test [22]; 68.6% in [23]; 30.2% in test [24].
